Patent US20240209302A1, “SYSTEMS, METHODS, AND DEVICES FOR EX VIVO ANALYSIS OF RESECTED TISSUE SAMPLES” (The United States of America,as represented by the …, priority 2020, published 2024)

Experiments:
Assay type in all cases: cell-based, human
[1] = system: liver capsule tissue from a colorectal cancer patient with liver metastases (colorectal adenocarcinoma); test: Check-point inhibitor evaluation in ex vivo perfusion system, colorectal cancer tissue (timeseries imaging); details: 5 μg/ml for 4 hr
Protocol: (§1) The system of FIG. 7A is well-suited to evaluate immunotherapeutic agents. Given that check-point inhibitors have made their way into the clinic for seemingly most solid tumors, such inhibitors were evaluated in the system of FIG. 7A using a tumor from a patient with gastric adenocarcinoma and a tumor from a patient with colorectal adenocarcinoma. Neither of these histologies have significant response rates to check-point inhibitors outside of select genomic subpopulations, which was not applicable to either patient in this example. FIGS. 12A-12D illustrates results of this example.
(§2) In the top panel, sample platforms with sidewall peritoneum from a gastric cancer patient were incubated with immune checkpoint inhibitor pembrolizumab for 2 days followed by Alexa488CD44/Alexa594CD45 antibodies. Maximum projections of 2-photon images illustrate the intimate contact between CD45-positive cells and the cancer cells. The bottom panel provides a timeseries montage of images taken from liver capsule tissue mounted on sample platforms from a colorectal cancer patient with liver metastases incubated with 5 μg/ml of pembrolizumab for 4 hr. […]
(§3) Image acquisition was performed on an inverted Leica SP8 setup using multiphoton excitation at 870 nm together with a 25×/0.95 W VISIR lens. […] Images were analyzed using ImageJ software. […]

[2] = system: sidewall peritoneum from a gastric cancer patient (gastric adenocarcinoma); test: Check-point inhibitor evaluation in ex vivo perfusion system, gastric cancer tissue (2-photon imaging); details: incubated for 2 days; Alexa488CD44/Alexa594CD45 antibodies
Protocol: as §1, §2, §3

[3] = system: SDH-B deficient GIST metastases to the peritoneum; test: Decitabine treatment of GIST tissue in ex vivo perfusion system (H&E, IHC, live imaging); details: 0-10 μM in perfusate; tissues harvested after 4 days
Source text: The system of FIG. 7A is also well-suited as a translational tool and/or as a tool for enrollment into clinical trials, especially where pre-clinical models are otherwise non-existent. For example, SDH-B deficient GIST is a rare subtype driven by epigenetic silencing of the gene, unresponsive to conventional agents (imatinib) and with no available cell lines or mouse models. Tissue from a patient with SDH-B deficient GIST was utilized in the system of FIG. 7A to investigate decitabine, a potential treatment option being evaluated for this population. Using early demethylation markers as a read-out, changes associated with decitabine treatment at physiologic and supraphysiologic doses were not detected. […] Sample platforms of tissue from the patient with GIST metastases to the peritoneum were cultured in perfusate supplemented with 0-10 μM decitabine. […] Stack projections of live images of control sample at day 0 and day 3 as well as a sample treated with 5 μM decitabine with fluorophore-conjugated antibodies against CD45 and CD117 also show no changes in the decitabine-treated tissue.
In any of the above discussed examples, tissue from system 700 was subject to similar histopathologic evaluations. […] Viability on H&E was defined as preservation of normal tissue architecture, intact nuclei, and normal population of immune cells (qualitative and quantitative). […]

[4] = system: resected cholangiocarcinoma tumor and liver capsule; test: Tivozanib treatment of cholangiocarcinoma tissue in ex vivo perfusion system (H&E, Ki67)
Protocol: In another example, the system of FIG. 7A was used to identify a new target in patients with cholangiocarcinoma. The target is a kinase, SLK, that activates AKT signaling leading to aggressive tumor biology and poor patient outcomes. Although no SLK-specific inhibitor exists, the kinome profiles of available kinase inhibitors was evaluated, and tivozanib was identified. Using tissue from a patient with cholangiocarcinoma in the system of FIG. 7A, tivozanib was evaluated. […] Resected cholangiocarcinoma tumor as well as liver capsule mounted on sample platforms treated with 0-1 mg/ml tivozanib were prepared for IHC, stained with H&E and Ki67 antibody. Cells in control and drug-treated platforms were evaluated for viability, degeneration and necrosis.
In any of the above discussed examples, tissue from system 700 was subject to similar histopathologic evaluations. For example, the tissues were preserved in the 10% neutral buffered formalin, then through the tissue processor and embedded in paraffin and cut at 5-micron sections for hematoxylin and eosin (H&E) slides. Slides were prepared for H&E staining and immunohistochemistry, respectively to detect CD3 (T cells), CD68 (macrophages), Ki-67 and MIBI (mitotic activity). CD3 and CD68 were predilute antibodies as purchased, while Ki-67 and (MIB-1) were run at 1:200 dilution. All stains were done on an automated immunostainer (Ventana Benchmark Ultra). Viability on H&E was defined as preservation of normal tissue architecture, intact nuclei, and normal population of immune cells (qualitative and quantitative). Each sample was compared against day 0 control samples. Ki67 or stains were performed to assess proliferative activity of the tumor cells. Samples stained with Ki67 or MIB1 on day 4 were compared to day 0 samples to confirm no change in proliferative activity.

Compound: pembrolizumab
- immune cell engagement with tumor cells [1]: Immune cell engagement was observed
- tumor cell lysis / apoptosis of CD44-positive cancer cells bound by CD45-positive cells [1]: captured tumor cell lysis
- binding of immune cells (CD45-positive) to cancer cells [2]: stimulates binding of immune cells to cancer cells

Compound: Nc1ncn([C@H]2C[C@H](O)[C@@H](CO)O2)c(=O)n1 [decitabine]
- methylation status of GIST (SDHB, 5-HMC, 5-MC IHC) [3]: no effect
- proliferation activity of GIST (Ki67) [3]: no effect

Compound: COc1cc2nccc(Oc3ccc(NC(=O)Nc4cc(C)on4)c(Cl)c3)c2cc1OC [tivozanib]
- cell death in liver metastases (viability, degeneration, necrosis) ([4]; 0-1 mg/ml, FIGS. 12C-12D): induces cell death
- tumor cell effect at physiologic doses ([4]; physiologic doses): tumor cell degeneration
- tumor cell effect at supraphysiologic concentrations ([4]; supraphysiologic concentrations): frank necrosis
